Results on 15 compounds are retold here after patent US20050192289A1, “Novel cinnamic amides” (Active Biotech AB, priority 2004, published 2005).

In data set [1] the target is T1, cloned human CCR1 Chemokine receptor (Homo sapiens, UniProt P32246).
T1 construct: purchased Perkin Elmer 6120525; host or cells: CHO cells
T1 sequence (P32246 1-355): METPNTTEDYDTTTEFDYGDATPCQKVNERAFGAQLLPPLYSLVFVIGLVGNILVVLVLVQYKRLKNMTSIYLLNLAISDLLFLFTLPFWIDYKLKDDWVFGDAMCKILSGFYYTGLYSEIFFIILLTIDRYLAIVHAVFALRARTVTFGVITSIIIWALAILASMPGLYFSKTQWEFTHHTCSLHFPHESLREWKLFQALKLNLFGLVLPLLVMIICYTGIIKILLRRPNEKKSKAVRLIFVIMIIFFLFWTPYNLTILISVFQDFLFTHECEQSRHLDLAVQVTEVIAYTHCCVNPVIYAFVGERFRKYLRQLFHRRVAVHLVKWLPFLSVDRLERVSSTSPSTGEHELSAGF
Description: In vitro competitive affinity binding assay (displacement of 125I-MIP-1α). The following applies: displacement of 125I-MIP-1α from cloned human CCR1 expressed in CHO cells, coated on FlashPlate; 1 hour, ambient temperature. An excerpt: In the competitive affinity binding assay, the binding affinity of the compounds for the CCR1 receptor can be determined by measuring their ability to displace ^125I-Mip-1α from the CCR1 receptor.
In vitro Competitive Affinity Binding Assay
• 1. Screen Ready™ Targets: cloned human CCR1 Chemokine receptor, expressed in CHO cells, coated on 96-well FlashPlate® (Perkin Elmer Cat #6120525) • 2. Ligand: ^125I-MIP-1α from Perkin Elmer (specific activity is 2200 Ci/mmol) was reconstituted to 25 μCi/L in H2O. • 3. Assay buffer: 50 mM HEPES, 1 mM CaCl2, 5 mM MgCl2, 0.2% BSA, pH 7.4. • 4. MIP-1α (Peprotech EC Ltd Cat # 300-08) • 5. The compounds of the invention were dissolved in DMSO. A serial dilution was made and ten concentrations of each compound were screened to generate a dose curve from which the IC50 value was determined. Assay Procedure:
Membranes coated on the FlashPlate® were incubated with ^125I-MIP-1α in the presence and absence of different concentrations of compounds at ambient temperature for 1 hour. The radioactivity in each well was determined in a microplate scintillation counter, The non-specific binding was defined by binding in the presence of 1250-fold unlabeled MIP-1α. The assay was performed according to the manufacturer's instruction of Screen Ready™ Targets.

A further data set concerns the target T2, CCR1 receptor (Homo sapiens, UniProt P32246).
T2 construct: host or cells: THP-1
T2 sequence (P32246 1-355): T1 sequence (P32246 1-355)
The data set can be described thus: In vitro Ca2+-flux assay on human monocytes (THP-1 cells stimulated with MIP-1α). Particulars: block of MIP-1α mediated Ca2+ mobilisation in THP-1 cells; Fluo-4. It is filed as cell-based. As to the method:
The binding of Mip-1α at the CCR1 receptor leads to an increase of intracellular calcium levels. The ability of the compounds of the invention to block this biologic response of the CCR1 receptor is determined in the Ca^2+-flux assay.
In vitro Ca^2+-Flux Assay on Human Monocytes
• 1. Cell Culture: • a) THP-1 (ATCC Cat# TIB202) • b) Tissue culture medium: RPMI 1640 with Ultraglutamine 1 supplemented with 10% (v/v) foetal calf serum. This medium is hereinafter referred to as “growth medium”. • 2. Assay buffer: HMSS (Hanks' balanced salts solution), 20 mM HEPES, 1 mM CaCl2, 1 mM MgCl2, 2.5 mM Probenecid, pH 7.4. • 3. Fluo-4AM (Molecular Probes Cat # F14201) • 4. Pluronic® F-127 (Molecular Probes Cat # P-6867) • 5. The compounds of the invention were dissolved in DMSO. A serial dilution was made and nine concentrations of each compound were screened to generate a dose curve from which the IC50 value was determined. • 6. MIP-1α (Peprotech EC Ltd Cat # 300-08) • 7. Victor^2 1420 (Perkin Elmer) • 8. Microlite™ ^2+ (Dynex Cat # 7572) Assay Procedure:
THP-1 cells were grown in T-75 cm^2 flasks in growth medium at 37° C. in 5% CO2. The cells were harvested by centrifugation and resuspended in assay buffer. The cells were then loaded with 5 μM Fluo-4 and 0.02% pluronic acid (final concentrations) at 37° C. in 5% CO2 for 30 min. The excess dye was removed by washing with assay buffer. The cells were resuspended and 10^5 cells/well were added in a Microlite plate containing compounds and then incubated for 15 minutes at 37° C. in 5% CO2. The cells were then stimulated with MIP-1α and changes in intracellular free Ca^2+ concentration were measured with a Victor^2.

Data set [2] can be described thus: In vivo bioavailability in the mouse (cassette dosing, i.v. or oral). Particulars: female mice (SJL/N Tac), nominal dose 1 mg/kg/compound; for half-life / clearance: mouse; for half-life: plasma half-life; for clearance: plasma; for F: oral bioavailability, F=(AUCinf,po/AUCinf,iv)·(Doseiv/Dosepo). The method, then:
Female mice (SJL/N Tac) were given a single intravenous or oral dose of a mixture of 5 or 6 compounds per cassette (nominal dose: 1 mg/kg/compound) in a solution containing 0.5% N,N′-dimethylacetamide (DMA) and 15% sulfobutyl ether β-cyclodextrin (Captisol®). Blood samples were taken from one mouse per time point and dose group until 24 hour after respective administration. The dose formulations and plasma concentrations of each compound were determined by LC-MS/MS. The pharmacokinetic parameters were determined by non-compartmental analysis using WinNonlin Professional (version 4.0.1). The elimination rate constant, λ, was estimated by linear regression analysis of the terminal slope of the logarithmic plasma concentration-time curve. The area under the plasma concentration-time curve, AUC0-t, was calculated by using the linear/logarithmic trapezoidal rule. The AUCinf was calculated with the residual area estimated as Cz/λ. The calculated plasma concentration at the last time point, Cz, was obtained from the regression equation. The oral bioavailability (F) was calculated as: Foral=(AUCinf,po/AUCinf,iv)·Doseiv/Dosepo). Pharmacodynamic Assays

Where a name gives a salt, the structure may show the parent alone. Some results are limits rather than exact numbers.

In the case of `C[C@@H]1CN(C(=O)/C=C/c2ccc(Cl)c([N+](=O)[O-])c2)[C@@H](C)CN1Cc1ccc(Cl)cc1` (racemic) [Compound 5.2, (E)-(trans)-3-(4-Chloro-3-nitro-phenyl)-1-[4-(4-chloro-benzyl)-2,5-dimethyl-piperazine-1-yl]-prop-2-en-1-one], the IC50 in data set [1] amounted to 0.039 µM; against CCR1 receptor it was 0.006 µM.
For `C[C@@H]1CN(C(=O)/C=C/c2ccc([N+](=O)[O-])cc2)[C@@H](C)CN1Cc1ccc(F)cc1` (racemic) [Compound 5.5, (E)-(trans)-1-[4-(4-Fluoro-benzyl)-2,5-dimethyl-piperazine-1-yl]-3-(4-nitro-phenyl)-prop-2-en-1-one], in that order: 0.033 µM and 0.023 µM.
The compound `C[C@@H]1CN(C(=O)/C=C/c2ccc(Cl)cc2Cl)[C@@H](C)CN1Cc1ccc(F)cc1` (racemic) [Compound 5.6, (E)-(trans)-3-(2,4-Dichloro-phenyl)-]-[4-(4-fluoro-benzyl)-2,5-dimethyl-piperazine-1-yl]-prop-2-en-1-one hydrochloride] came in with an IC50 on CCR1 receptor of 0.018 µM.
Take `C[C@@H]1CN(C(=O)/C=C/c2ccc3nonc3c2)[C@@H](C)CN1Cc1ccc(F)cc1` (racemic) [Compound 5.13, (E)-(trans)-3-Benzo[2,1,3]oxadiazol-5-yl-1-[4-(4-fluoro-benzyl)-2,5-dimethyl-piperazine-1-yl]-prop-2-en-1-one]: in data set [2], the half-life is 2.3 h, the clearance was 58.3 mL/min/kg and the F was 29%. The same compound yielded an IC50 in data set [1] of 0.043 µM. Moreover, the IC50 on CCR1 receptor worked out at 0.012 µM.
For `COc1cc(/C=C/C(=O)N2C[C@@H](C)N(Cc3ccc(F)cc3)C[C@@H]2C)cc(OC)c1OC` (racemic) [Compound 5.19, (E)-(trans)-1-[4-(4-Fluoro-benzyl)-2,5-dimethyl-piperazine-1-yl]-3-(3,4,5-trimethoxy-phenyl)-prop-2-en-1-one], the figures for the IC50 (in data set [1]; at CCR1 receptor) were 0.017 µM and 0.008 µM, respectively.
In the case of `C[C@@H]1CN(C(=O)/C=C/c2cc(Cl)c3nsnc3c2)[C@@H](C)CN1Cc1ccc(F)cc1` (racemic) [Compound 5.46, (E)-(trans)-3-(4-Chloro-benzo[2,1,3]thiadiazol-6-yl)-1-[4-(4-fluorobenzyl)-2,5-dimethyl-piperazine-1-yl]-prop-2-en-1-one], 0.007 µM corresponded to half-maximal inhibition on CCR1 receptor (IC50). This counts as single-digit nanomolar.
In data set [2], `C[C@@H]1CN(C(=O)/C=C/c2ccc(Cl)cc2)[C@@H](C)CN1Cc1ccc(F)cc1` (racemic) [Compound 6.1, (E)-(trans)-3-(4-Chloro-phenyl)-1-[4-(4-fluoro-benzyl)-2,5-dimethyl-piperazine-1-yl]-prop-2-en-1-one] gave a half-life of 5.3 h, a clearance of 80 mL/min/kg and an F of 62%. In data set [1], this compound had an IC50 of 0.014 µM. On CCR1 receptor, this compound registered a half-inhibitory concentration (IC50) of 0.009 µM.
Turning to `C[C@@H]1CN(C(=O)/C=C/c2ccc(Cl)c([N+](=O)[O-])c2)[C@@H](C)CN1Cc1ccc(F)cc1` (racemic) [Compound 6.2, (E)-(trans)-3-(4-Chloro-3-nitro-phenyl)-1-[4-(4-fluoro-benzyl)-2,5-dimethyl-piperazne-1-yl]-prop-2-en-1-one], the IC50 in data set [1] is 0.021 µM; against CCR1 receptor, 0.004 µM.
For `C[C@@H]1CN(C(=O)/C=C\c2ccc(Cl)cc2)[C@@H](C)CN1Cc1ccc(F)cc1` (racemic) [Compound 8.1, (Z)-(trans)-3-(4-Chloro-phenyl)-1-[4-(4-fluoro-benzyl)-2,5-dimethyl-piperazine-1-yl]-prop-2-en-1-one, reference compound], in that order: greater than 1 µM and 0.207 µM.
As for `C[C@H]1CN(C(=O)/C=C/c2ccc(Cl)cc2)[C@@H](C)CN1Cc1ccc(F)cc1` (racemic) [Compound 9.1, (E)-(cis)-3-(4-Chloro-phenyl)-1-[4-(4-fluoro-benzyl)-2,5-dimethyl-piperazine-1-yl]-prop-2-en-1-one, reference compound], half-maximal inhibition against CCR1 receptor (IC50) required 0.91 µM. This counts as sub-micromolar.
With `O=C(/C=C/c1ccc(Cl)cc1)N1CCN(Cc2ccc(F)cc2)CC1` [B, 3-(4-chloro-phenyl)-1-[4-(4-fluoro-benzyl)-piperazine-1-yl]-prop-2-en-1-one, reference compound], the values for the IC50 (in data set [1]; against CCR1 receptor) were 0.235 µM and 0.063 µM, respectively.
For `O=C(/C=C\c1ccc(Cl)cc1)N1CCN(Cc2ccc(F)cc2)CC1` [Compound 8.2, (Z)-3-(4-Chloro-phenyl)-1-[4-(4-fluoro-benzyl)-piperazine-1-yl]-prop-2-en-1-one, reference compound], in that order: greater than 1 µM and greater than 1 µM.
Consider `COc1cc(/C=C/C(=O)N2CCN(Cc3ccc(F)cc3)CC2)cc(OC)c1OC` [Compound A, 1-[4-(4-Fluoro-benzyl)-piperazine-1-yl]-3-(3,4,5-trimethoxy-phenyl)-prop-2-en-1-one, reference compound], for which the 50% inhibitory concentration (IC50) in data set [1] was found to be 0.565 µM; at CCR1 receptor it was 0.11 µM.
On to `O=C(/C=C/c1ccc(Cl)cc1Cl)N1CCN(Cc2ccc(Cl)cc2)CC1` [Compound C, 1-(4-chlorobenzyl)-4-(2,4-dichlorocinnamoyl)-piperazine, reference compound], for which the midpoint of inhibition at CCR1 receptor, the IC50, lay at 0.12 µM.
As to `C[C@@H]1CN(Cc2ccc(F)cc2)C[C@H](C)N1C(=O)/C=C/c1ccc(Cl)cc1` [F, reference compound], the 50% inhibitory concentration (IC50) was greater than 1 µM in data set [1] and 0.416 µM on CCR1 receptor.
